Measurements from US20070116781A1, “Hydrogen Cyanamide Pesticide Formulations” (priority 2005, published 2007).

Assays:
microbivorous nematodes = assay: Effect on beneficial nematodes in covered pots of silt loam; format: in vivo; settings: microbivorous nematodes, in vivo, pH 6.2
Protocol: (§1) In this study, the soil was naturally infested with four species of nematodes, two of which were deleterious and two beneficial, and observations were made of both the nematode survival and the growth of the soybean plants.
(§2) Stock solutions of hydrogen cyanamide at 1.0% by weight and propionic acid at 5.0% by weight, both in water, were prepared, the hydrogen cyanamide from a phosphate-buffered 50% aqueous solution. Planting pots measuring 10 cm in diameter, each containing 1 kg of soil, were used. The soil was silt loam from a cotton field, pH 6.2, CEC<10 meq/100 g soil, organic matter<1.0%. The treatment chemicals were combined in various dilutions such that 100 mL of the combined dilutions contained the desired amount of each chemical for each test. The combined dilutions were then applied to the soil surface in each pot, at 100 mL of combined dilution per pot. The dilutions were selected to achieve target application rates expressed in milligrams of the treatment chemical per kilogram of soil, with 1 milligram of treatment chemical per kilogram of soil being approximately equal to 2 kilograms of the chemical per hectare of soil or 2 pounds of the chemical per acre of soil.
(§3) Immediately after the treatment chemicals were applied, each pot was covered by a thick (1.5 mil), clear, low-density polyethylene bag. After twelve days, the bags were removed and soil samples were taken from each pot for nematological analysis by the salad bowl technique of Rodriguez-Kabana, R., and M. H. Pope, Nematropica, 11: 175-186 (1981). The results of these analyses are listed in Table I as pre-plant test results. The results for the two deleterious nematodes are also shown as plots of the number of nematodes vs. the hydrogen cyanamide application rate in FIGS. 1 and 2.
(§4) After the polyethylene bags were removed, each pot was planted with Hutcheson soybean seeds at 5 seeds per pot, and the seeds were allowed to germinate and the plants to grow for 45 days. The resulting plants were then removed from the pots, the root systems were washed, and the number of plants in each pot was determined. The weights of both fresh shoots and roots were also determined as well as the shoot height and the relative health of the root system, using a subjective index. Soil samples were also collected, and the soil and roots were incubated to determine nematode populations. Treatments were arranged in randomized complete block design with seven replications per treatment, and statistical evaluation of the data was performed with analyses of variance (ANOVA) and standard regression procedures. Fischer's Least Significant Difference at p 0.05 was calculated when appropriate. The results of these tests are listed as final test results in Tables II, III, and IV, with nematode populations in the soil listed in Table II, the nematode populations in the root systems in Table III, and the plant and root parameters of the soybean shoots in Table IV.

morningglory = assay: Herbicidal activity, phosphate-free cyanamide and propionic acid, post-emergence, uncovered pots; format: in vivo, Ipomoea spp.
Excerpt: (§5) The procedures in this example differed from those of Example 2, however, by the use of hydrogen cyanamide crystals free of phosphate ion to prepare the aqueous hydrogen cyanamide solution, by the use of post-emergence application, and by the omission of any covering of the pots during any part of the test. Observations were made for total weed growth, and individual observations were also made for yellow nutsedge, crabgrass, sicklepod, and momingglory. Stock solutions of hydrogen cyanamide at 1.25% by weight and propionic acid at 5.0% by weight, both in water, were prepared as before, except that the hydrogen cyanamide solution, as noted above, was prepared by dissolving hydrogen cyanamide crystals in water in the absence of phosphate ion. […] The weeds were allowed to grow for three weeks before the treatment chemicals were applied. […] Data analyses were performed in the same manner as Examples 1 and 2. Table IX lists the results in weeds per pot for all weeds, Table X for yellow nutsedge, Table XI for crabgrass, Table XII for sicklepod, and Table XIII for morningglory, all both with propionic acid alone at various application rates and with […]

sicklepod = assay: as above; format: in vivo, Senna obtusifolia
Excerpt: as §5

reniform nematodes = assay: Nematicidal activity in covered pots of naturally infested silt loam, soybean planted after 12 days; format: in vivo, Rotylenchulus reniformus; settings: C2H5CO2H 250 mg/kg soil
Protocol: as §1, §2, §3, §4

[1] = 6 d after treatment, C2H5CO2H 100 mg/kg soil
[2] = 6 d after treatment, C2H5CO2H 200 mg/kg soil
[3] = 6 d after treatment, C2H5CO2H 300 mg/kg soil
[4] = 6 d after treatment, C2H5CO2H 400 mg/kg soil
[5] = 6 d after treatment, C2H5CO2H 500 mg/kg soil
[6] = 13 d after treatment, C2H5CO2H 100 mg/kg soil
[7] = 13 d after treatment, C2H5CO2H 200 mg/kg soil
[8] = 13 d after treatment, C2H5CO2H 300 mg/kg soil
[9] = 13 d after treatment, C2H5CO2H 400 mg/kg soil
[10] = 13 d after treatment, C2H5CO2H 500 mg/kg soil
[11] = 20 d after treatment, C2H5CO2H 100 mg/kg soil
[12] = 20 d after treatment, C2H5CO2H 200 mg/kg soil
[13] = 20 d after treatment, C2H5CO2H 300 mg/kg soil
[14] = 20 d after treatment, C2H5CO2H 400 mg/kg soil
[15] = 20 d after treatment, C2H5CO2H 500 mg/kg soil

## CCC(=O)O [C2H5CO2H, propionic acid]
Microbivorous nematodes; 12 d
  Surviving Nematodes: Microbivorous: 66 per 100 mL of soil
Microbivorous nematodes; 57 d
  Surviving Nematodes in Root System: Microbivorous: 96 Per Pot
  Surviving Nematodes: Microbivorous: 45 per 100 mL of soil
morningglory; [1]
  Weeds Per Pot: Morningglory: 7
morningglory; [2]
  Weeds Per Pot: Morningglory: 2.1
morningglory; [3]
  Weeds Per Pot: Morningglory: 0
morningglory; [4]
  Weeds Per Pot: Morningglory: 0
morningglory; [5]
  Weeds Per Pot: Morningglory: 0
morningglory; [6]
  Weeds Per Pot: Morningglory: 7.3
morningglory; [7]
  Weeds Per Pot: Morningglory: 2.1
morningglory; [8]
  Weeds Per Pot: Morningglory: 0
morningglory; [9]
  Weeds Per Pot: Morningglory: 0
morningglory; [10]
  Weeds Per Pot: Morningglory: 0
morningglory; [11]
  Weeds Per Pot: Morningglory: 7.3
morningglory; [12]
  Weeds Per Pot: Morningglory: 2.1
morningglory; [13]
  Weeds Per Pot: Morningglory: 0
morningglory; [14]
  Weeds Per Pot: Morningglory: 0
morningglory; [15]
  Weeds Per Pot: Morningglory: 0
sicklepod; [1]
  Weeds Per Pot: Sicklepod: 3.1
sicklepod; [2]
  Weeds Per Pot: Sicklepod: 1.3
sicklepod; [3]
  Weeds Per Pot: Sicklepod: 0.9
sicklepod; [4]
  Weeds Per Pot: Sicklepod: 0.4
sicklepod; [5]
  Weeds Per Pot: Sicklepod: 0.7
sicklepod; [6]
  Weeds Per Pot: Sicklepod: 3.6
sicklepod; [7]
  Weeds Per Pot: Sicklepod: 2.4
sicklepod; [8]
  Weeds Per Pot: Sicklepod: 1.4
sicklepod; [9]
  Weeds Per Pot: Sicklepod: 1.6
sicklepod; [10]
  Weeds Per Pot: Sicklepod: 2
sicklepod; [11]
  Weeds Per Pot: Sicklepod: 3.1
sicklepod; [12]
  Weeds Per Pot: Sicklepod: 2.3
sicklepod; [13]
  Weeds Per Pot: Sicklepod: 1.9
sicklepod; [14]
  Weeds Per Pot: Sicklepod: 1.9
sicklepod; [15]
  Weeds Per Pot: Sicklepod: 2.1
Reniform nematodes; 12 d after treatment, pre-plant
  Surviving Nematodes: Reniform: 280 per 100 mL of soil
Reniform nematodes; 57 d after treatment, 45 d after planting
  Surviving Nematodes: Reniform: 328 per 100 mL of soil
Reniform nematodes; 57 d after treatment
  Surviving Nematodes in Root System: Reniform: 64.7 Per Pot
